Data published in patent US3955959A, “Herbicide for use in transplanted rice” (priority 1974, dated 1976).

Legend:
Test in all cases: Example 6 weed control, JAAPR, Japan
Type in all cases: in vivo
Et (Elatine triandra) = tested on: Et (Elatine triandra)
Protocol: (§1) In this example, the efficacy of Herbicide A is presented for a variety of weeds in the presence of ordinary and infant transplant rice. In this example, tests were conducted at the said JAAPR Lab at different times of the year. "Early season" transplants were made in April and "Normal season" transplants were made in July. The size of the transplants at the respective seasons were: Season Seedling Type Plant Height (cm) Leaf Stage ______________________________________ Early Ordinary 16.5 4.5 Early Infant 9.1 2.4 Normal Ordinary 41.7 5.3 Normal Infant 14.7 1.9 ______________________________________
(§2) Duplicate treatments were used. At the time of application of the herbicide, the status of the grass (EC) was as follows: […]

Sh (Scirpus hotarui) = conditions: Normal season
Protocol: as §1, §2

Cd (Cyperus difformis) = tested on: Cd (Cyperus difformis)
Protocol: as §1, §2

[1] = tested on: Ec (Echinochloa crusgalli)
Protocol: as §1, §2

Sp (Sagittaria pygmaea) = conditions: Normal season
Protocol: as §1, §2

[2] = tested on: Mv (Monochoria vaginalis)
Protocol: as §1, §2

Ri (Rotala indica) = tested on: Ri (Rotala indica)
Protocol: as §1, §2

[3] = tested on: Obw (other broadleaf weeds); conditions: ordinary
Protocol: as §1, §2

Lp (Lindernia pyxidaria) = tested on: Lp (Lindernia pyxidaria)
Protocol: as §1, §2

[4] = Early season, ordinary, 1.0 kg/ha, 3 DAT
[5] = Early season, ordinary, 1.0 kg/ha, 12 DAT
[6] = Early season, ordinary, 1.0 kg/ha, -2 DAT
[7] = Early season, ordinary, .5 kg/ha, 3 DAT
[8] = Early season, ordinary, .5 kg/ha, 12 DAT
[9] = Early season, ordinary, .5 kg/ha, -2 DAT
[10] = Normal season, infant, 1.0 kg/ha, 3 DAT
[11] = Normal season, infant, 1.0 kg/ha, 7 DAT
[12] = Normal season, infant, 1.0 kg/ha, -2 DAT
[13] = Normal season, infant, .5 kg/ha, 3 DAT
[14] = Normal season, infant, .5 kg/ha, 7 DAT
[15] = Normal season, infant, .5 kg/ha, -2 DAT
[16] = Normal season, ordinary, 1.0 kg/ha, 3 DAT
[17] = Normal season, ordinary, 1.0 kg/ha, 7 DAT
[18] = Normal season, ordinary, 1.0 kg/ha, -2 DAT
[19] = Normal season, ordinary, .5 kg/ha, 3 DAT
[20] = Normal season, ordinary, .5 kg/ha, 7 DAT
[21] = Normal season, ordinary, .5 kg/ha, -2 DAT

CCCCOCN(C(=O)CCl)c1c(C)cccc1C(C)(C)C [Herbicide A, n-(butoxymethyl)-6'-tert-butyl-2-chloro-o-acetotoluidide]
% Weed Control (Et) (Et (Elatine triandra); [4]): 95%
% Weed Control (Et) (Et (Elatine triandra); [5]): 70%
% Weed Control (Et) (Et (Elatine triandra); [6]): 95%
% Weed Control (Et) (Et (Elatine triandra); [7]): 70%
% Weed Control (Et) (Et (Elatine triandra); [8]): < 40%
% Weed Control (Et) (Et (Elatine triandra); [9]): 95%
% Weed Control (Et) (Et (Elatine triandra); [10]): 100%
% Weed Control (Et) (Et (Elatine triandra); [11]): 100%
% Weed Control (Et) (Et (Elatine triandra); [12]): 100%
% Weed Control (Et) (Et (Elatine triandra); [13]): 100%
% Weed Control (Et) (Et (Elatine triandra); [14]): 100%
% Weed Control (Et) (Et (Elatine triandra); [15]): 100%
% Weed Control (Et) (Et (Elatine triandra); [16]): 100%
% Weed Control (Et) (Et (Elatine triandra); [17]): 100%
% Weed Control (Et) (Et (Elatine triandra); [18]): 100%
% Weed Control (Et) (Et (Elatine triandra); [19]): 100%
% Weed Control (Et) (Et (Elatine triandra); [20]): 100%
% Weed Control (Et) (Et (Elatine triandra); [21]): 100%
% Weed Control (Sh) (Sh (Scirpus hotarui); infant, 1.0 kg/ha, 3 DAT): 100%
% Weed Control (Sh) (Sh (Scirpus hotarui); infant, 1.0 kg/ha, 7 DAT): 100%
% Weed Control (Sh) (Sh (Scirpus hotarui); infant, 1.0 kg/ha, -2 DAT): 100%
% Weed Control (Sh) (Sh (Scirpus hotarui); infant, .5 kg/ha, 3 DAT): 100%
% Weed Control (Sh) (Sh (Scirpus hotarui); infant, .5 kg/ha, 7 DAT): 100%
% Weed Control (Sh) (Sh (Scirpus hotarui); infant, .5 kg/ha, -2 DAT): 100%
% Weed Control (Sh) (Sh (Scirpus hotarui); ordinary, 1.0 kg/ha, 3 DAT): 100%
% Weed Control (Sh) (Sh (Scirpus hotarui); ordinary, 1.0 kg/ha, 7 DAT): 100%
% Weed Control (Sh) (Sh (Scirpus hotarui); ordinary, 1.0 kg/ha, -2 DAT): 100%
% Weed Control (Sh) (Sh (Scirpus hotarui); ordinary, .5 kg/ha, 3 DAT): 100%
% Weed Control (Sh) (Sh (Scirpus hotarui); ordinary, .5 kg/ha, 7 DAT): 100%
% Weed Control (Sh) (Sh (Scirpus hotarui); ordinary, .5 kg/ha, -2 DAT): 100%
% Weed Control (Cd) (Cd (Cyperus difformis); [4]): 100%
% Weed Control (Cd) (Cd (Cyperus difformis); [5]): 100%
% Weed Control (Cd) (Cd (Cyperus difformis); [6]): 100%
% Weed Control (Cd) (Cd (Cyperus difformis); [7]): 100%
% Weed Control (Cd) (Cd (Cyperus difformis); [8]): 100%
% Weed Control (Cd) (Cd (Cyperus difformis); [9]): 100%
% Weed Control (Cd) (Cd (Cyperus difformis); [10]): 100%
% Weed Control (Cd) (Cd (Cyperus difformis); [11]): 100%
% Weed Control (Cd) (Cd (Cyperus difformis); [12]): 100%
% Weed Control (Cd) (Cd (Cyperus difformis); [13]): 100%
% Weed Control (Cd) (Cd (Cyperus difformis); [14]): 100%
% Weed Control (Cd) (Cd (Cyperus difformis); [15]): 100%
% Weed Control (Cd) (Cd (Cyperus difformis); [16]): 100%
% Weed Control (Cd) (Cd (Cyperus difformis); [17]): 100%
% Weed Control (Cd) (Cd (Cyperus difformis); [18]): 100%
% Weed Control (Cd) (Cd (Cyperus difformis); [19]): 100%
% Weed Control (Cd) (Cd (Cyperus difformis); [20]): 100%
% Weed Control (Cd) (Cd (Cyperus difformis); [21]): 100%
% Weed Control (Ec) [1, 4]: 100%
% Weed Control (Ec) [1, 5]: 100%
% Weed Control (Ec) [1, 6]: 100%
% Weed Control (Ec) [1, 7]: 100%
% Weed Control (Ec) [1, 8]: 100%
% Weed Control (Ec) [1, 9]: 100%
% Weed Control (Ec) [1, 10]: 100%
% Weed Control (Ec) [1, 11]: 100%
% Weed Control (Ec) [1, 12]: 100%
% Weed Control (Ec) [1, 13]: 100%
% Weed Control (Ec) [1, 14]: 100%
% Weed Control (Ec) [1, 15]: 100%
% Weed Control (Ec) [1, 16]: 100%
% Weed Control (Ec) [1, 17]: 100%
% Weed Control (Ec) [1, 18]: 100%
% Weed Control (Ec) [1, 19]: 100%
% Weed Control (Ec) [1, 20]: 95%
% Weed Control (Ec) [1, 21]: 100%
% Weed Control (Sp) (Sp (Sagittaria pygmaea); infant, 1.0 kg/ha, 3 DAT): < 40%
% Weed Control (Sp) (Sp (Sagittaria pygmaea); infant, 1.0 kg/ha, 7 DAT): < 40%
% Weed Control (Sp) (Sp (Sagittaria pygmaea); infant, 1.0 kg/ha, -2 DAT): < 40%
% Weed Control (Sp) (Sp (Sagittaria pygmaea); infant, .5 kg/ha, 3 DAT): < 40%
% Weed Control (Sp) (Sp (Sagittaria pygmaea); infant, .5 kg/ha, 7 DAT): < 40%
% Weed Control (Sp) (Sp (Sagittaria pygmaea); infant, .5 kg/ha, -2 DAT): < 40%
% Weed Control (Sp) (Sp (Sagittaria pygmaea); ordinary, 1.0 kg/ha, 3 DAT): < 40%
% Weed Control (Sp) (Sp (Sagittaria pygmaea); ordinary, 1.0 kg/ha, 7 DAT): < 40%
% Weed Control (Sp) (Sp (Sagittaria pygmaea); ordinary, 1.0 kg/ha, -2 DAT): < 40%
% Weed Control (Sp) (Sp (Sagittaria pygmaea); ordinary, .5 kg/ha, 3 DAT): < 40%
% Weed Control (Sp) (Sp (Sagittaria pygmaea); ordinary, .5 kg/ha, 7 DAT): < 40%
% Weed Control (Sp) (Sp (Sagittaria pygmaea); ordinary, .5 kg/ha, -2 DAT): < 40%
% Weed Control (Mv) [2, 4]: 100%
% Weed Control (Mv) [2, 5]: 95%
% Weed Control (Mv) [2, 6]: 100%
% Weed Control (Mv) [2, 7]: 95%
% Weed Control (Mv) [2, 8]: 95%
% Weed Control (Mv) [2, 9]: 95%
% Weed Control (Mv) [2, 10]: 100%
% Weed Control (Mv) [2, 11]: 85%
% Weed Control (Mv) [2, 12]: 100%
% Weed Control (Mv) [2, 13]: 100%
% Weed Control (Mv) [2, 14]: 70%
% Weed Control (Mv) [2, 15]: 100%
% Weed Control (Mv) [2, 16]: 100%
% Weed Control (Mv) [2, 17]: 100%
% Weed Control (Mv) [2, 18]: 100%
% Weed Control (Mv) [2, 19]: 100%
% Weed Control (Mv) [2, 20]: 95%
% Weed Control (Mv) [2, 21]: 100%
% Weed Control (Ri) (Ri (Rotala indica); [4]): 100%
% Weed Control (Ri) (Ri (Rotala indica); [5]): 100%
% Weed Control (Ri) (Ri (Rotala indica); [6]): 100%
% Weed Control (Ri) (Ri (Rotala indica); [7]): 100%
% Weed Control (Ri) (Ri (Rotala indica); [8]): 100%
% Weed Control (Ri) (Ri (Rotala indica); [9]): 100%
% Weed Control (Ri) (Ri (Rotala indica); [10]): 100%
% Weed Control (Ri) (Ri (Rotala indica); [11]): 100%
% Weed Control (Ri) (Ri (Rotala indica); [12]): 100%
% Weed Control (Ri) (Ri (Rotala indica); [13]): 100%
% Weed Control (Ri) (Ri (Rotala indica); [14]): 100%
% Weed Control (Ri) (Ri (Rotala indica); [15]): 100%
% Weed Control (Ri) (Ri (Rotala indica); [16]): 100%
% Weed Control (Ri) (Ri (Rotala indica); [17]): 100%
% Weed Control (Ri) (Ri (Rotala indica); [18]): 100%
% Weed Control (Ri) (Ri (Rotala indica); [19]): 100%
% Weed Control (Ri) (Ri (Rotala indica); [20]): 100%
% Weed Control (Ri) (Ri (Rotala indica); [21]): 100%
% Weed Control (Obw) ([3]; Early season, 1.0 kg/ha, 3 DAT): 100%
% Weed Control (Obw) ([3]; Early season, 1.0 kg/ha, 12 DAT): 50%
% Weed Control (Obw) ([3]; Early season, 1.0 kg/ha, -2 DAT): 100%
% Weed Control (Obw) ([3]; Early season, .5 kg/ha, 3 DAT): 100%
% Weed Control (Obw) ([3]; Early season, .5 kg/ha, 12 DAT): 100%
% Weed Control (Obw) ([3]; Early season, .5 kg/ha, -2 DAT): 100%
% Weed Control (Obw) ([3]; Normal season, 1.0 kg/ha, 3 DAT): 100%
% Weed Control (Obw) ([3]; Normal season, 1.0 kg/ha, 7 DAT): 100%
% Weed Control (Obw) ([3]; Normal season, 1.0 kg/ha, -2 DAT): 100%
% Weed Control (Obw) ([3]; Normal season, .5 kg/ha, 3 DAT): 100%
% Weed Control (Obw) ([3]; Normal season, .5 kg/ha, 7 DAT): 100%
% Weed Control (Obw) ([3]; Normal season, .5 kg/ha, -2 DAT): 100%
% Weed Control (Lp) (Lp (Lindernia pyxidaria); [4]): 100%
% Weed Control (Lp) (Lp (Lindernia pyxidaria); [5]): 95%
% Weed Control (Lp) (Lp (Lindernia pyxidaria); [6]): 100%
% Weed Control (Lp) (Lp (Lindernia pyxidaria); [7]): 100%
% Weed Control (Lp) (Lp (Lindernia pyxidaria); [8]): 85%
% Weed Control (Lp) (Lp (Lindernia pyxidaria); [9]): 100%
% Weed Control (Lp) (Lp (Lindernia pyxidaria); [10]): 100%
% Weed Control (Lp) (Lp (Lindernia pyxidaria); [11]): 100%
% Weed Control (Lp) (Lp (Lindernia pyxidaria); [12]): 100%
% Weed Control (Lp) (Lp (Lindernia pyxidaria); [13]): 100%
% Weed Control (Lp) (Lp (Lindernia pyxidaria); [14]): 100%
% Weed Control (Lp) (Lp (Lindernia pyxidaria); [15]): 100%
% Weed Control (Lp) (Lp (Lindernia pyxidaria); [16]): 100%
% Weed Control (Lp) (Lp (Lindernia pyxidaria); [17]): 100%
% Weed Control (Lp) (Lp (Lindernia pyxidaria); [18]): 100%
% Weed Control (Lp) (Lp (Lindernia pyxidaria); [19]): 100%
% Weed Control (Lp) (Lp (Lindernia pyxidaria); [20]): 100%
% Weed Control (Lp) (Lp (Lindernia pyxidaria); [21]): 100%
